Source: patent publication US20130310256A1, “HERBICIDAL COMPOSITIONS COMPRISING 4-AMINO-3-CHLORO-5-FLUORO-6-(4-CHLORO-2-FLUORO-3-METHOXYPHENYL) PYRIDINE-2-CARBOXYLIC ACID OR A DERIVATIVE THEREOF AND VLCFA AND LIPID SYNTHESIS INHIBITING HERBICIDES” (DOW AGROSCIENCES LLC, priority 2008, published 2013)

Columns and labels:
ECHCO = test: Example I: postemergence foliar-applied weed control, greenhouse; format: in vivo, Echinochloa colona (L.) Link (junglerice); conditions: 275 gai/ha; foliar
Outline: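 Plants grown in loam/sandy loam–calcareous grit soil (80:20) in greenhouse, 14 hr photoperiod, about 29° C. day/26° C. night, treated postemergence at first to fourth true leaf stage. Foliar spray at 187 L/ha with 1.25% (v/v) crop oil concentrate; Compound A dosed on acid equivalent basis, partners on active ingredient basis.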

XANST = test: Example IV: pre-emergence soil-applied weed control, greenhouse; format: in vivo, Xanthium strumarium L. (common cocklebur); conditions: 29 DAA
From the text: Seeds or nutlets of the desired test plant species were planted in a soil matrix prepared by mixing a loam soil (32 percent silt, 23 percent clay, and 45 percent sand, with a pH of about 6.5 and an organic matter content of about 1.9 percent) and calcareous grit in an 80 to 20 ratio. The soil matrix was contained in plastic pots with a volume of 1 quart and a surface area of 83.6 square centimeters (cm^2).
Treatments consisted of the benzyl ester of 4-amino-3-chloro-5-fluoro-6-(4-chloro-2-fluoro-3-methoxy-phenyl)pyridine-2-carboxylic acid (compound A) formulated as an SC (suspension concentrate) and various herbicidal components alone and in combination. Forms of compound A were applied on an acid equivalent basis.
Other herbicidal components were applied on an active ingredient basis and included very long chain fatty acid (VLCFA) synthesis-inhibiting and fatty acid/lipid synthesis-inhibiting herbicides alachlor (technical grade material), dimethenamid-P formulated as Outlook®, and S-metolachlor formulated as Dual® II Magnum.
Treatment requirements were calculated based upon the rates being tested, the concentration of active ingredient or acid equivalent in the formulation, and a 12 mL application volume at a rate of 187 L/ha.
For treatments comprised of formulated compounds, measured amounts of compounds were placed individually in 25 mL glass vials and diluted in a volume of 1.25% (v/v) Agri-Dex® crop oil concentrate (COC) to obtain 12× stock solutions. […] Application solutions were prepared by adding an appropriate amount of each stock solution (e.g., 1 mL) and diluted to the appropriate final concentrations with the addition of 10 mL of an aqueous mixture of 1.25% (v/v) COC so that the final spray solutions contained 1.25% (v/v) COC.
For treatments comprised of technical compounds, weighed amounts can be placed individually in 25 mL glass vials and dissolved in a volume of 97:3 (v/v) acetone/DMSO to obtain 12× stock solutions. […] Application solutions can be prepared by adding an appropriate amount of each stock solution (e.g., 1 mL) and diluted to the appropriate final concentrations with the addition of 10 mL of an aqueous mixture of 1.5% (v/v) COC so that the final spray solutions contain 1.25% (v/v) COC. […]
For treatments comprised of formulated and technical compounds, weighed amounts of the technical materials were placed individually in 25 mL glass vials and dissolved in a volume of 97:3 (v/v) acetone/DMSO to obtain 12× stock solutions, and measured amounts of the formulated compounds were placed individually in 25 mL glass vials and diluted in a volume of 1.5% (v/v) COC or water to obtain 12× stock solutions. […]

CYPES = test: Example I: postemergence foliar-applied weed control, greenhouse; format: in vivo, Cyperus esculentus L. (yellow nutsedge); conditions: 275 gai/ha

Q: For COC[C@H](C)N(C(=O)CCl)c1c(C)csc1C [Dimethenamid-P, (S) 2-chloro-N-(2,4-dimethyl-3-thienyl)-N-(2-methoxy-1-methylethyl)acetamide], which “Visual Weed Control (%) - 20 DAA ECHCO Obs” value (ECHCO) is on record?
A: 70%

Q: And the “Visual Weed Control XANST Obs” value (XANST; 410 gai/ha)?
A: 23%

Q: What about the “Visual Weed Control XANST Obs” value (XANST; 820 gai/ha) of the same compound?
A: 30%

Q: What about the “Visual Weed Control XANST Obs” value (XANST; 1640 gai/ha) of the same compound?
A: 50%

Q: And the “Visual Weed Control (%) - 20 DAA CYPES Obs” value (CYPES)?
A: 0%
